Paper PMC7419507, “In vitro Cas9-assisted editing of modular polyketide synthase genes to produce desired natural product derivatives” (Nature Communications, 2020)
pEC50: −log10 of the molar value. Values joined by “and” are separate entries in the source; they are usually repeats but may differ in a detail not shown here. Equal values may be shown once.

Experiments:
Type in all cases: cell-based
[1] = target: T1, FKBP12 and mTOR (Homo sapiens, UniProt P42345+P62942); test: Fluoppi analysis: induction of FKBP12-mTOR complex formation in transfected HeLa cells; details: for Foci intensity: raw data, one replicate per line
T1 construct: host or cells: HeLa cells
Summary of the method: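 Complex formation read as fluorescent foci: foci intensity over total per-cell intensity, imaged (×20, 9 fields/well) after fixation and Hoechst stain, giving EC50. Cells: HeLa transiently expressing hAG-mTOR and Ash-FKBP12, exposed to compound concentrations for 1 h at 37 °C.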

[2] = tested on: malignant pleural mesothelioma MESO-1 cells; test: Cytotoxicity assay (CellTiter-Glo, 72 h), MESO-1; details: raw replicate data
Summary of the method: (§1)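 Incubate 4 h at 37 °C, 5% CO2. Add 2-fold compound dilutions, 0.5% DMSO. After 72 h, read CellTiter-Glo luminescence.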

[3] = Cytotoxicity assay (CellTiter-Glo, 72 h), MESO-1; details: human
Summary of the method: as §1

T1 sequence (P42345 2025-2114 limits assumed): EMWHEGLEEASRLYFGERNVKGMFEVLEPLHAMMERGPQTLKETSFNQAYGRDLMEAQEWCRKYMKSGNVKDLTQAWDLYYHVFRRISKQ
T1 sequence (P62942 whole entry): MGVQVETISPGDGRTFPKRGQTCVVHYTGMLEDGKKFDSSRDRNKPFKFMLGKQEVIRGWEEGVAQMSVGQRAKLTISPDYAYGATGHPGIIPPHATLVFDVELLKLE

COC1CC2CCC(C)C(O)(O2)C(=O)C(=O)N2CCCCC2C(=O)OC(C(C)CC2CCC(O)C(OC)C2)CCC(C)C=C(C)C(O)C(OC)C(=O)C(C)CC(C)C=CC=CC=C1C (stereo not drawn) [Compound 16, 32-desketorapamycin]
PPI-inducing (binding enhancing) activity between FKBP12 and mTOR compared with rapamycin (1), in words ([1]; Fluoppi): relatively weaker activities
pEC50 ([1]; Fluoppi, HeLa cells, 1 h treatment, three independent biological replicates, read-out: EC50, induction of the formation of FKBP-mTOR complex): 7.42
Foci intensity ([1]; conc 9.53674e-5 uM): 0.01132 and 0.0225 and 0.02884
Foci intensity ([1]; conc 0.000190735 uM): 0.02797 and 0.01973 and 0.01419
Foci intensity ([1]; conc 0.00038147 uM): 0.04487 and 0.01438 and 0.009614
Foci intensity ([1]; conc 0.000762939 uM): 0.009583 and 0.01833 and 0.008004
Foci intensity ([1]; conc 0.00152588 uM): 0.008334 and 0.01713 and 0.01044
Foci intensity ([1]; conc 0.00305176 uM): 0.03307 and 0.01421 and 0.0165
Foci intensity ([1]; conc 0.00610352 uM): 0.02498 and 0.01872 and 0.01859
Foci intensity ([1]; conc 0.012207 uM): 0.05798 and 0.0563 and 0.05141
Foci intensity ([1]; conc 0.0244141 uM): 0.05792 and 0.05718 and 0.05874
Foci intensity ([1]; conc 0.0488281 uM): 0.2264 and 0.3107 and 0.3692
Foci intensity ([1]; conc 0.0976562 uM): 0.3743 and 0.3092 and 0.3931
Foci intensity ([1]; conc 0.195312 uM): 0.3634 and 0.4076 and 0.3212
Foci intensity ([1]; conc 0.390625 uM): 0.4389 and 0.407 and 0.4337
Foci intensity ([1]; conc 0.78125 uM): 0.46 and 0.2978 and 0.3103
Foci intensity ([1]; conc 1.5625 uM): 0.3578 and 0.3604 and 0.4124
Foci intensity ([1]; conc 3.125 uM): 0.4619 and 0.4071 and 0.4306
Foci intensity ([1]; conc 6.25 uM): 0.3337 and 0.3579 and 0.3756
Foci intensity ([1]; conc 12.5 uM): 0.4107 and 0.3542 and 0.4482
Foci intensity ([1]; conc 25 uM): 0.3853 and 0.4351 and 0.4313
Foci intensity ([1]; conc 50 uM): 0.3983 and 0.3475 and 0.366
MESO1 viability (%) ([2]; conc 9.53674e-5 uM): 98.1% and 96.4%
MESO1 viability (%) ([2]; conc 0.000190735 uM): 91.1% and 98.0%
MESO1 viability (%) ([2]; conc 0.00038147 uM): 95.4% and 92.4%
MESO1 viability (%) ([2]; conc 0.000762939 uM): 78.9% and 75.5%
MESO1 viability (%) ([2]; conc 0.00152588 uM): 89.1% and 81.4%
MESO1 viability (%) ([2]; conc 0.00305176 uM): 75.1% and 66.9%
MESO1 viability (%) ([2]; conc 0.00610352 uM): 75.6% and 76.2%
MESO1 viability (%) ([2]; conc 0.012207 uM): 76.9% and 75.8%
MESO1 viability (%) ([2]; conc 0.0244141 uM): 81.3% and 75.2%
MESO1 viability (%) ([2]; conc 0.0488281 uM): 73.0% and 74.7%
MESO1 viability (%) ([2]; conc 0.0976562 uM): 75.8%
MESO1 viability (%) ([2]; conc 0.195312 uM): 76.9% and 68.9%
MESO1 viability (%) ([2]; conc 0.390625 uM): 78.5%
MESO1 viability (%) ([2]; conc 0.78125 uM): 69.3% and 68.9%
MESO1 viability (%) ([2]; conc 1.5625 uM): 73.6% and 69.8%
MESO1 viability (%) ([2]; conc 3.125 uM): 61.9% and 65.8%
MESO1 viability (%) ([2]; conc 6.25 uM): 68.9% and 66.9%
MESO1 viability (%) ([2]; conc 12.5 uM): 60.8% and 58.2%
MESO1 viability (%) ([2]; conc 25 uM): 49.9% and 47.7%
MESO1 viability (%) ([2]; conc 50 uM): 33.7% and 30.2%
viability at 72 h ([3]; MESO-1 cells (malignant pleural mesothelioma), MESO-1 cells, 72 h, read-out: Plateau level of cell viability in the dose-response curve): ~75%
viability at 72 h, 9.53674e-05 uM ([3]; MESO-1 malignant pleural mesothelioma cells, conc 9.53674e-5 uM, raw replicate data, read-out: MESO1 viability (%)): 102%
viability at 72 h, 0.000190735 uM ([3]; MESO-1 malignant pleural mesothelioma cells, conc 0.000190735 uM, raw replicate data, read-out: MESO1 viability (%)): 86.2%
viability at 72 h, 0.00038147 uM ([3]; MESO-1 malignant pleural mesothelioma cells, conc 0.00038147 uM, raw replicate data, read-out: MESO1 viability (%)): 94.8%
viability at 72 h, 0.000762939 uM ([3]; MESO-1 malignant pleural mesothelioma cells, conc 0.000762939 uM, raw replicate data, read-out: MESO1 viability (%)): 80.3%
viability at 72 h, 0.00152588 uM ([3]; MESO-1 malignant pleural mesothelioma cells, conc 0.00152588 uM, raw replicate data, read-out: MESO1 viability (%)): 82.2%
viability at 72 h, 0.00305176 uM ([3]; MESO-1 malignant pleural mesothelioma cells, conc 0.00305176 uM, raw replicate data, read-out: MESO1 viability (%)): 74.9%
viability at 72 h, 0.00610352 uM ([3]; MESO-1 malignant pleural mesothelioma cells, conc 0.00610352 uM, raw replicate data, read-out: MESO1 viability (%)): 80.5%
viability at 72 h, 0.012207 uM ([3]; MESO-1 malignant pleural mesothelioma cells, conc 0.012207 uM, raw replicate data, read-out: MESO1 viability (%)): 73.8%
